ChEMBL document CHEMBL1157898 (Bioorg Med Chem Lett, 2010)

System: H4
Test: Toxicity in human H4 cells at 10 uM
Assay type: cell-based
Conditions: h4, 10 µM

Q: How did the Activity turn out when `COc1cc(OC)c(C=C2C(O)=Nc3ccccc32)c(OC)c1` [IC261] was run?
A: The Activity was 40 µM.
